Measurements as given in ChEMBL document CHEMBL1201862, “PubChem BioAssay data set” (2004).
Activity calls are given as the source filed them.

Tests used:
[1] = target: Signal transducer and activator of transcription 3 (Homo sapiens, UniProt P40763); test: STAT3 inhibitors, late-stage profile, late-stage follow-up, cell-based, STAT1 panel, qPCR, cytotoxicity, panel member STAT3 Inhibition (AID 2078)
[2] = target: Signal transducer and activator of transcription 1-alpha/beta (Homo sapiens, UniProt P42224); test: STAT3 inhibitors, late-stage profile, late-stage follow-up, cell-based, STAT1 panel, qPCR, cytotoxicity, panel member STAT1 Inhibition (AID 2078)
Sequence of Signal transducer and activator of transcription 1-alpha/beta (P42224 whole entry): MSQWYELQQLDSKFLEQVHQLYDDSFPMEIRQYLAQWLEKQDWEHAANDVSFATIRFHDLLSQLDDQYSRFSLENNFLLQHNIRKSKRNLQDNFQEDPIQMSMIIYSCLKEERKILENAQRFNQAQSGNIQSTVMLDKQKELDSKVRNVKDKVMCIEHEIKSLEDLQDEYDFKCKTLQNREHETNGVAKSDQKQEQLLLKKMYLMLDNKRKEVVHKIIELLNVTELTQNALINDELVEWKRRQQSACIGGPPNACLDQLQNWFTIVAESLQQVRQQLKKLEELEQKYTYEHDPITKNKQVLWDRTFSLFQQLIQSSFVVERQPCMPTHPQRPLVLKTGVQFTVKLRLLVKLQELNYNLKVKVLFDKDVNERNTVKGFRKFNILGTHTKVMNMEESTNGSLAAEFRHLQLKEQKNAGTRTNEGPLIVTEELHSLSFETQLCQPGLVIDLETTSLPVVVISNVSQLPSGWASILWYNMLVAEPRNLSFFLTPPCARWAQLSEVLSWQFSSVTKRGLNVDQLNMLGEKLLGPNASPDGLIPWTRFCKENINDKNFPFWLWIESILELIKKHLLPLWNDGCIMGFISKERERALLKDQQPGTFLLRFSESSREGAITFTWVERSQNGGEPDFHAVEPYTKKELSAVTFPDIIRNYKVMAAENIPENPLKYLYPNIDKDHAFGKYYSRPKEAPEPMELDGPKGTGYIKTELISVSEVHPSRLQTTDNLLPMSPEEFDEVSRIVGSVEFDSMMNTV

[3] = target: Lysine-specific demethylase 4A (Homo sapiens, UniProt O75164); test: JMJD2A histone demethylase inhibitors, dose response, selectivity assay for GASC-1 inhibitor project, biochemical, DELFIA europium, cherry-picked samples (AID 488840)
Sequence of Lysine-specific demethylase 4A (O75164 whole entry): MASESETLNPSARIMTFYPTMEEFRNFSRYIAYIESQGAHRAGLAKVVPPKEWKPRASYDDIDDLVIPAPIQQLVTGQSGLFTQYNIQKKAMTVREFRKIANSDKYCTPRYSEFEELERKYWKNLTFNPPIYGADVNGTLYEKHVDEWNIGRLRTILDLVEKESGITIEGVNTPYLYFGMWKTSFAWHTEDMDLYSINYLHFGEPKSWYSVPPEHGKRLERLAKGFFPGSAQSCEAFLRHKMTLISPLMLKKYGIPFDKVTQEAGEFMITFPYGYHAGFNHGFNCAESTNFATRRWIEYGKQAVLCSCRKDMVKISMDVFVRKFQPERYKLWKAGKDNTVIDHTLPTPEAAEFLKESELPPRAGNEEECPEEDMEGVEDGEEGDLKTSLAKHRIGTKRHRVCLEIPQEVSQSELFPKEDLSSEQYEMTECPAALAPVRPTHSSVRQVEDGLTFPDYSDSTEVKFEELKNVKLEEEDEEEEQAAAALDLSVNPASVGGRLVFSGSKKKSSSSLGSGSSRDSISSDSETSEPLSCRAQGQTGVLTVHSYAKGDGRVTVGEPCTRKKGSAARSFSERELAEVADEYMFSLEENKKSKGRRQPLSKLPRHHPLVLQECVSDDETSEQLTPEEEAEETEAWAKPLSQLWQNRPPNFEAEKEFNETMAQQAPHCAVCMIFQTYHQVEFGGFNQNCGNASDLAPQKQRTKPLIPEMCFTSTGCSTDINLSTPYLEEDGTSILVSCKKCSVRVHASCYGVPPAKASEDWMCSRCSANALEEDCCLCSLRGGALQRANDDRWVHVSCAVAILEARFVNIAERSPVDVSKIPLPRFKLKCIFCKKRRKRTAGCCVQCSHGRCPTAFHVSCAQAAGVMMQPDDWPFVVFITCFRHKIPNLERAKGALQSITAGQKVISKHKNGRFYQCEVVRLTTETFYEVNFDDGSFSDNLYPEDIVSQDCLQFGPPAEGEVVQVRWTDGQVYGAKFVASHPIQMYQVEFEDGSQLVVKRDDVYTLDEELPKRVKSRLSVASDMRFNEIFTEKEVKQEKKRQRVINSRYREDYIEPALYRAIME

[4] = target: Lysine-specific demethylase 4C (Homo sapiens, UniProt Q9H3R0); test: GASC-1 (JMJD2C) histone demethylase inhibitors, dose response, biochemical, DELFIA europium, cherry-picked samples (AID 488835); format: functional
Sequence of Lysine-specific demethylase 4C (Q9H3R0 whole entry): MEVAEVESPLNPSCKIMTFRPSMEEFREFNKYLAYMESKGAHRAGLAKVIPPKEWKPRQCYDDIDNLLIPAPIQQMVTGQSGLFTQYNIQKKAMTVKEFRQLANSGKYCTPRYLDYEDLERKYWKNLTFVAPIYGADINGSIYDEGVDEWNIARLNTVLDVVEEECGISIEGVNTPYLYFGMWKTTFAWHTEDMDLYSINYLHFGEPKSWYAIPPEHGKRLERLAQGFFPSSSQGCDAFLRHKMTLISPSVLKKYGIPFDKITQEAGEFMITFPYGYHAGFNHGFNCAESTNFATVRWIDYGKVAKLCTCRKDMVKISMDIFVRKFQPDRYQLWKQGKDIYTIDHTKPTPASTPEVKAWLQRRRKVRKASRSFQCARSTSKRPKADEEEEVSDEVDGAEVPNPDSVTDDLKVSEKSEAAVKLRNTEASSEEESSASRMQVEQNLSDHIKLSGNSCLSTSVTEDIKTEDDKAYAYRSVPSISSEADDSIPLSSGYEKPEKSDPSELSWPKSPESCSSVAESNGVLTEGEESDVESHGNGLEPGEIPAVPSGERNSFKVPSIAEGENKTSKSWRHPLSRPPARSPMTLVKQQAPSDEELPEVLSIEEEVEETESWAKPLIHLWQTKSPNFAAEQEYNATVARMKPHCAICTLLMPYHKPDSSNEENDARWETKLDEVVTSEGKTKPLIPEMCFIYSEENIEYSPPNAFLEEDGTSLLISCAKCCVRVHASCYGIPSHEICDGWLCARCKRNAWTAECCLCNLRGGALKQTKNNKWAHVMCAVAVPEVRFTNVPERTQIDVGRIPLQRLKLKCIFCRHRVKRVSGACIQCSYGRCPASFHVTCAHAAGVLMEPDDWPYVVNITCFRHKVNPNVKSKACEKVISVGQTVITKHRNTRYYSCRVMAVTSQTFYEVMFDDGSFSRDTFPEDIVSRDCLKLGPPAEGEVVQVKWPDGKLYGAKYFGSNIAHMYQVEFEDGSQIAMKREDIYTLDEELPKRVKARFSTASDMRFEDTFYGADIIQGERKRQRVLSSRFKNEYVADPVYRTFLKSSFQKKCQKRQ

Sequence of Signal transducer and activator of transcription 3 (P40763 whole entry): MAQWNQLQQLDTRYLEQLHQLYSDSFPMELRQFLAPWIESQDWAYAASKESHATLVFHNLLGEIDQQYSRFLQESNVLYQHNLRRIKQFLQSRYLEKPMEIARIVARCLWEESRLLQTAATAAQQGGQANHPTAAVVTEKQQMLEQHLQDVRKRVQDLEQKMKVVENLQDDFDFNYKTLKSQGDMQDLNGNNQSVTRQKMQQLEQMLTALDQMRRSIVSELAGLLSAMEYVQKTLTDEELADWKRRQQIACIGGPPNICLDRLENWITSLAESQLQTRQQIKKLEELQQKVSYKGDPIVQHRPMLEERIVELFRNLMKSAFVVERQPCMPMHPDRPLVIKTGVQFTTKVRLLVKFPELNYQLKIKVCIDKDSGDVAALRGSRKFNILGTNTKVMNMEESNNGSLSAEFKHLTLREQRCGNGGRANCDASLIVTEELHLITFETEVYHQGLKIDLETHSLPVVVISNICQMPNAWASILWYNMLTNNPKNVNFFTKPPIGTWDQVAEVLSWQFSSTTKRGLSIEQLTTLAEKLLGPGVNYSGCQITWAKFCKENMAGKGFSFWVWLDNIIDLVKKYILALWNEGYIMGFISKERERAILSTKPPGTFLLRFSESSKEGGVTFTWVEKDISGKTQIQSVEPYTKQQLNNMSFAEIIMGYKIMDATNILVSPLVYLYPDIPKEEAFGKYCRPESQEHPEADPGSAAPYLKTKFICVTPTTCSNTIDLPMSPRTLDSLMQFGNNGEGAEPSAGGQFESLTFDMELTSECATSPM

**Q.** How did the IC50 [1] turn out when `c1ccc(CC2CCN(c3nc(CN4CCOCC4)nc4sc5c(c34)CCCC5)CC2)cc1` was run?
**A.** Its IC50 is > 55.7 µM (inactive).

**Q.** What about the IC50 [2] of the same compound?
**A.** Its IC50 is > 55.7 µM (inactive).

**Q.** For `O=c1nc(SCc2cccc(C(F)(F)F)c2)nc2ccccn12`, which AC50 [3] is on record?
**A.** Its AC50 is > 60 µM (inactive).

**Q.** `CCCn1c(SCC(=O)NNC(=O)c2ccc(C)cc2)nnc1C(C)C` was tested. Which AC50 [4] did it give?
**A.** Its AC50 is 9.91 µM (active).
